Assay results reported in the supplement of paper PMC12076712.

How the values were obtained:
Test in all cases: pIC50, kinobeads binding competition
CDKL5 = molecular target: T1, CDKL5 (UniProt O76039)
T1 sequence (whole entry): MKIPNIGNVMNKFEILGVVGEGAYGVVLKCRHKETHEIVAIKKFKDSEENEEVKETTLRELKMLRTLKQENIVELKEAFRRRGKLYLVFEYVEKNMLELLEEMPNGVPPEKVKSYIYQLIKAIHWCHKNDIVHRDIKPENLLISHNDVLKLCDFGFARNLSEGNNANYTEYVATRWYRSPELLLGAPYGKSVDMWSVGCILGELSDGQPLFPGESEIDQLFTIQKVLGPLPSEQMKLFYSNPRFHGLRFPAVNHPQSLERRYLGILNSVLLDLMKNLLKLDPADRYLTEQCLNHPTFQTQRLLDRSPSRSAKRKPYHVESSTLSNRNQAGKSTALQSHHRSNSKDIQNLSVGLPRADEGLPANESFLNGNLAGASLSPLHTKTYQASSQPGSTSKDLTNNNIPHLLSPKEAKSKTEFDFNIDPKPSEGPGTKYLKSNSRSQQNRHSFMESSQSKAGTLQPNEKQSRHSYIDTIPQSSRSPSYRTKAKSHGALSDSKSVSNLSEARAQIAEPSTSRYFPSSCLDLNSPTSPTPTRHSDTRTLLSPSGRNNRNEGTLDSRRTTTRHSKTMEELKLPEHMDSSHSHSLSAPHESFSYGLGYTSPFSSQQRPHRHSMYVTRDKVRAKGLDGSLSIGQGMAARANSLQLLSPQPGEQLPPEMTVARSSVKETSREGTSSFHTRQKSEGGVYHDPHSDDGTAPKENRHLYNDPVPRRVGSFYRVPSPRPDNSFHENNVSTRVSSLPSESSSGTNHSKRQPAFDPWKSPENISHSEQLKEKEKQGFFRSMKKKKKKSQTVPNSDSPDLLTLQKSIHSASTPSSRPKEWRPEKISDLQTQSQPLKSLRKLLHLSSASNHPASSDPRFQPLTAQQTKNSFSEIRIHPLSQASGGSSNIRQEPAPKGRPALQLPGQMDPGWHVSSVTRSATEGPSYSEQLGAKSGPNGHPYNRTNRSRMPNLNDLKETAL
Summary of the method: (§1)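 Jurkat cells were exposed alive to nine compound concentrations (top 30 μM, 1:4 steps) or vehicle for 60 min at 37 °C and then lysed. In a second format, nine concentrations (top 30 μM, 1:5 steps) were incubated for 60 min at 4 °C with Jurkat lysate or with a 1:1:1:1 lysate mix of HEK293, K-562, HepG2 and placenta. Proteins captured on Kinobeads were digested and quantified by TMT10 LC-MS/MS. pIC50 values were derived from logistic dose-response fits (R drc package) of fold changes relative to vehicle, in biological duplicates.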

UniProt P04629 = details: cell material: Lysate mix
Chain of UniProt P04629 (P04629 whole entry, looked up): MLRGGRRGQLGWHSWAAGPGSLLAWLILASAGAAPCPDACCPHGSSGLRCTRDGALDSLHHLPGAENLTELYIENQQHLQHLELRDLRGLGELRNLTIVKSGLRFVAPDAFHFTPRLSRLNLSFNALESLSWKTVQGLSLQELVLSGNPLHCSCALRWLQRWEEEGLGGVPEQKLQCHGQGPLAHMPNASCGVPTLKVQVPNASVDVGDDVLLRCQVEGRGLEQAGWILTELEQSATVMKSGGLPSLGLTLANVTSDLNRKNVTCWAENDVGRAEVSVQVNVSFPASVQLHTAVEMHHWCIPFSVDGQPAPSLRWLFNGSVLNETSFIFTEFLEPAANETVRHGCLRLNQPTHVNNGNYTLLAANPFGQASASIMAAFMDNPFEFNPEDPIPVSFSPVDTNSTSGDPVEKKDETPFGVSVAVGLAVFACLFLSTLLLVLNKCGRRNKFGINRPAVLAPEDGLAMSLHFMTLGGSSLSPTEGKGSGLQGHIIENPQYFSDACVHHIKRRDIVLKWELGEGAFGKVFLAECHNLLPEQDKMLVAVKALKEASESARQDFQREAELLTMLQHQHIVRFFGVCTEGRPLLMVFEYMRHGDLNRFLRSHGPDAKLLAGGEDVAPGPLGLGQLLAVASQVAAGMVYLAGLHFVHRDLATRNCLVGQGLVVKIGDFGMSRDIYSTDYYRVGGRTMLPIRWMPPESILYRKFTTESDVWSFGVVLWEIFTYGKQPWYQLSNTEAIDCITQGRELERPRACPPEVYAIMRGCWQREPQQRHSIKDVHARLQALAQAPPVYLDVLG
Summary of the method: as §1

INSR = INSR (UniProt P06213)
Summary of the method: as §1

UniProt P49841 = molecular target: UniProt P49841
Chain of UniProt P49841 (P49841 whole entry, looked up): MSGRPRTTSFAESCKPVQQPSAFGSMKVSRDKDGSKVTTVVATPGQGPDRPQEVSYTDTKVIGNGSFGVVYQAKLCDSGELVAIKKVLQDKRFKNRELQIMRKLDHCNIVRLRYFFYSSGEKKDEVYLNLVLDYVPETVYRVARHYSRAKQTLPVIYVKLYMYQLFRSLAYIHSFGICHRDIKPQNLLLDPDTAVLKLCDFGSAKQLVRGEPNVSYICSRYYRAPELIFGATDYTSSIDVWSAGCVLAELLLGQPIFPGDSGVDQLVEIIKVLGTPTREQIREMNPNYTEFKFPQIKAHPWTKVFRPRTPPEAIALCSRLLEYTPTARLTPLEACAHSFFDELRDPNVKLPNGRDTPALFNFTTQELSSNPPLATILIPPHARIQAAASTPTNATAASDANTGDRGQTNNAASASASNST
Summary of the method: as §1

EPHA7 = EPHA7 (UniProt Q15375); details: cell material: Lysate mix
Chain of EPHA7 (Q15375 whole entry, looked up): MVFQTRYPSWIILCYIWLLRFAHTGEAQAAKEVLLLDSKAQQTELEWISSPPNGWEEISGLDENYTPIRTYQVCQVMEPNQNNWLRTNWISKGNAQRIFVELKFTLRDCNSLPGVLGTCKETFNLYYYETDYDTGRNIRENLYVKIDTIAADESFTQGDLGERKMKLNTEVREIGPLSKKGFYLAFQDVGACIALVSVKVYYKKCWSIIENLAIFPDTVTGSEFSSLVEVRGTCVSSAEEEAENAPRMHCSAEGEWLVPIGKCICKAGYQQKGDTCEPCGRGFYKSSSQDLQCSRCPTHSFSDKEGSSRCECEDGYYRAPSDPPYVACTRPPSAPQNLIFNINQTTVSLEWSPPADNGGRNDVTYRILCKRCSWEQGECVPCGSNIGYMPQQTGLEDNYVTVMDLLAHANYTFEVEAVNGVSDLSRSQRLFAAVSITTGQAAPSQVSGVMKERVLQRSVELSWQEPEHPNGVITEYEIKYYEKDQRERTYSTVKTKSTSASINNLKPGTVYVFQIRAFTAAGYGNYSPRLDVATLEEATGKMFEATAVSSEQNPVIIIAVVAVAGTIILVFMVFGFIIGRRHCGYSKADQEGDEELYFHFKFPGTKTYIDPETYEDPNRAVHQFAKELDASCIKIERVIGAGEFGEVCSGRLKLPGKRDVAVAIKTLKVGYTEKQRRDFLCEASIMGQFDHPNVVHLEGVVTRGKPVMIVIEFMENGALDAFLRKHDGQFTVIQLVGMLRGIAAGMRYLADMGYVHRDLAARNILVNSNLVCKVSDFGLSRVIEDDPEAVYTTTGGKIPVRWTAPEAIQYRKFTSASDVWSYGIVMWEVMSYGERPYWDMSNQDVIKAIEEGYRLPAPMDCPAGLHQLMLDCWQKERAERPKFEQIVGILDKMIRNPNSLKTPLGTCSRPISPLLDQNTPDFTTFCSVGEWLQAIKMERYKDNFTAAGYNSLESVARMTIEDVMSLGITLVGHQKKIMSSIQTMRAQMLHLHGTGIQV
Summary of the method: as §1

CDK2 = CDK2 (UniProt P24941)
Summary of the method: as §1

ACVR2A = ACVR2A (UniProt P27037); details: cell material: Lysate mix
Summary of the method: as §1

PKN3 = PKN3 (UniProt Q6P5Z2); details: cell material: Lysate mix
Summary of the method: as §1

DYRK2 = molecular target: T2, DYRK2 (UniProt Q92630)
T2 sequence (whole entry): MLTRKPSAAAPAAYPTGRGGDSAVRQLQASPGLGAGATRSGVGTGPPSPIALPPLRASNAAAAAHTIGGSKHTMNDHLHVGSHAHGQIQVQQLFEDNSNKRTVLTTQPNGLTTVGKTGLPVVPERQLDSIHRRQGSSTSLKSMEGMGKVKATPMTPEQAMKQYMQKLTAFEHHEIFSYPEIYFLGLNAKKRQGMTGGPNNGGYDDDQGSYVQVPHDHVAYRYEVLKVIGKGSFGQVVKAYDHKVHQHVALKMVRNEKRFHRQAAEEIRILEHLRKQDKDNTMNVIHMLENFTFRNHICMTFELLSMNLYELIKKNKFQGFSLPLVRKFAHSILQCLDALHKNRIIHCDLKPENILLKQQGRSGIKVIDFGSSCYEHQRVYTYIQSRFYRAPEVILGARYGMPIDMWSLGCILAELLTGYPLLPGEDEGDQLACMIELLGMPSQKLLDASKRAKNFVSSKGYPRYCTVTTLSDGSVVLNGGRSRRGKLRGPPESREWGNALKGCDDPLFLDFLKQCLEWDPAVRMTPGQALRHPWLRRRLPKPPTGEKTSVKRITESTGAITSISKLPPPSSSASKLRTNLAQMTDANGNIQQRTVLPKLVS
Summary of the method: as §1

TGFBR2 = TGFBR2 (UniProt P37173)
Chain of TGFBR2 (P37173 whole entry): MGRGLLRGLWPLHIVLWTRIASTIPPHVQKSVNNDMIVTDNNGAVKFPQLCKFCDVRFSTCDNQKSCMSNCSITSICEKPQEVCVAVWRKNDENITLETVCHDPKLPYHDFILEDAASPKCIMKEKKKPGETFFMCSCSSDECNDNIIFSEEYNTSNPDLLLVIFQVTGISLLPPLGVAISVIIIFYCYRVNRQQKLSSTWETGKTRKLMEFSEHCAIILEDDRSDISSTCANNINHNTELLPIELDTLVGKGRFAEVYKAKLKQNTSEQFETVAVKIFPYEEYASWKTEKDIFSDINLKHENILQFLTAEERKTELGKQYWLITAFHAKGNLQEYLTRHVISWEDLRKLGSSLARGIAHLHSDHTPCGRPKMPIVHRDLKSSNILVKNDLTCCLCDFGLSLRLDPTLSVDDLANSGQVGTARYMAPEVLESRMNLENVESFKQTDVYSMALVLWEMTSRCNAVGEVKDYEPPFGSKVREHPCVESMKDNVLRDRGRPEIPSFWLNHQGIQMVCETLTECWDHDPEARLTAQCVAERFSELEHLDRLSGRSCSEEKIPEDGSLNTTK
Summary of the method: as §1

CIT = CIT (UniProt O14578)
Chain of CIT (O14578 whole entry): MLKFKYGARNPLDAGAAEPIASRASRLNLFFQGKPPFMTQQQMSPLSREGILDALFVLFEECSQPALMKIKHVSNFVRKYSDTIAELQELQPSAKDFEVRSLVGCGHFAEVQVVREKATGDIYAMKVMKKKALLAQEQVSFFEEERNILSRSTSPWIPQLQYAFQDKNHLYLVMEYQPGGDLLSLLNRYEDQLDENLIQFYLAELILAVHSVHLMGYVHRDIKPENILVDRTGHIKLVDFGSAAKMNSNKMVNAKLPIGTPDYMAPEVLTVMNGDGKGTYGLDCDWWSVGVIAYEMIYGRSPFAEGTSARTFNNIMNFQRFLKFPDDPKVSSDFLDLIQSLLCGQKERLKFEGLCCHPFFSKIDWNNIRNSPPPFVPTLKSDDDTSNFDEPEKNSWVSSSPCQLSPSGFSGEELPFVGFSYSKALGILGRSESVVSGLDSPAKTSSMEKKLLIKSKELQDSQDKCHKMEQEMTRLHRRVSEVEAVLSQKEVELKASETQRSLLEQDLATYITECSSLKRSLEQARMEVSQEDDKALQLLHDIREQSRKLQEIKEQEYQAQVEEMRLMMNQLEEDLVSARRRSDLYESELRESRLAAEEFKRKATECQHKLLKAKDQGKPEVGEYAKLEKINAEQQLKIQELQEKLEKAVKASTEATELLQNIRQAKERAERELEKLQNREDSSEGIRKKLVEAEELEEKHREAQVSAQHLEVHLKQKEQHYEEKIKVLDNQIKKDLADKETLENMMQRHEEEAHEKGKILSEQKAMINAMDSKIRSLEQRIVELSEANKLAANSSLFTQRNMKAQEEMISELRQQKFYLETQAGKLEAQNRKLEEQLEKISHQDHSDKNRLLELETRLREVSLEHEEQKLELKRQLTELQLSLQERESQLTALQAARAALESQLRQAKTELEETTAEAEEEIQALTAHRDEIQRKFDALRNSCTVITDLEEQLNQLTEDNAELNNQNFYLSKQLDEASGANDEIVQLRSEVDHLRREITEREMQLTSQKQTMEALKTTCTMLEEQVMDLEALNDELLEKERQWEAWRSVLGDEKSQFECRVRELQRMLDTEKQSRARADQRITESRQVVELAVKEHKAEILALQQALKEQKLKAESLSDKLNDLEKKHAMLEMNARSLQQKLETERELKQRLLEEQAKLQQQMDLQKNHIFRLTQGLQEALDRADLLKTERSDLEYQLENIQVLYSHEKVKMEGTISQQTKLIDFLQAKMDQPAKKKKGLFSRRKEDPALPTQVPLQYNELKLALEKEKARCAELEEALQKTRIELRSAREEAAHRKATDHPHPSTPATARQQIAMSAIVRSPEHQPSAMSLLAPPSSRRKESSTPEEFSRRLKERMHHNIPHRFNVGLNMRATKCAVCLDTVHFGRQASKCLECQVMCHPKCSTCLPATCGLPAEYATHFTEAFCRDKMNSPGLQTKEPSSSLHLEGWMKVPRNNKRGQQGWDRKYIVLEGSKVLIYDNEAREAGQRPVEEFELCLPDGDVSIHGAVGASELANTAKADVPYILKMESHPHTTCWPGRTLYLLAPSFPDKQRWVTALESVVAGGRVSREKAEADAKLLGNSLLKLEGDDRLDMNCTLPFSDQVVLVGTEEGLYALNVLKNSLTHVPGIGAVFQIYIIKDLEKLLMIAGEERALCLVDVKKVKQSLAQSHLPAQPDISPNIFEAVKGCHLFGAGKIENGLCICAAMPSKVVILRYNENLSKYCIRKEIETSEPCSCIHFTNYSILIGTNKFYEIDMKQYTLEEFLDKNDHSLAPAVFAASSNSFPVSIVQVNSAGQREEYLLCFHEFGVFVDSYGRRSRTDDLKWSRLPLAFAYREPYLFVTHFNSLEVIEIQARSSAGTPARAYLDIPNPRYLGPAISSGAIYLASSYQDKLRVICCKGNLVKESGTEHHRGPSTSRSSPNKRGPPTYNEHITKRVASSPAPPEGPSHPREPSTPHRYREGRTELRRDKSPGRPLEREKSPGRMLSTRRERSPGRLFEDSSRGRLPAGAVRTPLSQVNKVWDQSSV
Summary of the method: as §1

BMX = molecular target: T3, BMX (UniProt P51813); details: cell material: Lysate mix
T3 sequence (whole entry): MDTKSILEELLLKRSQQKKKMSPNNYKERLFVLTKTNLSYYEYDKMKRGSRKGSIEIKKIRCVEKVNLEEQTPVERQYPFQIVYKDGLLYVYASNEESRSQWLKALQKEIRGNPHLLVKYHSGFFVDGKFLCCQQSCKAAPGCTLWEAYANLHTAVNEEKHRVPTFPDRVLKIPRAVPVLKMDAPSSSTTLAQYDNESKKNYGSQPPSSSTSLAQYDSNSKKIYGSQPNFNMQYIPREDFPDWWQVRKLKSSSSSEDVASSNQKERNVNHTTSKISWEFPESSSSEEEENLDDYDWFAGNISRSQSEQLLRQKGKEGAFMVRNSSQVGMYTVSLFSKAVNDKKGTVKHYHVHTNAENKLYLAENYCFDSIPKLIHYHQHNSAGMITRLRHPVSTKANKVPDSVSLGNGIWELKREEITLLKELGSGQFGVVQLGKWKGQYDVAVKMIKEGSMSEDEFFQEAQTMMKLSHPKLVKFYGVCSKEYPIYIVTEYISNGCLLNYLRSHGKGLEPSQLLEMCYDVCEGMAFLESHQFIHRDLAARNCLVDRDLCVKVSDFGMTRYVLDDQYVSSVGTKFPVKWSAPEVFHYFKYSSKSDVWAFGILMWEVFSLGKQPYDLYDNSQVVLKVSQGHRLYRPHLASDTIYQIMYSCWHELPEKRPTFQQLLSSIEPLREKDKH
Summary of the method: as §1

AAK1 = AAK1 (UniProt Q2M2I8)
Summary of the method: as §1

| pIC50 (CDKL5; cell material: Lysate mix) | pIC50 (UniProt P04629) | pIC50 (INSR; cell material: Lysate mix) | pIC50 (UniProt P49841; cell material: Lysate mix) | pIC50 (EPHA7) | pIC50 (CDK2; cell material: Lysate mix) | pIC50 (ACVR2A) | pIC50 (PKN3) | pIC50 (DYRK2; cell material: Lysate mix) | pIC50 (TGFBR2; cell material: Lysate mix) | pIC50 (CIT; cell material: Lysate mix) | pIC50 (BMX) | pIC50 (AAK1; cell material: Lysate mix) | pIC50 (CIT; cell material: Jurkat cells) | Compound | pIC50 (CDKL5; cell material: Jurkat lysate) | pIC50 (INSR; cell material: Jurkat cells) | pIC50 (INSR; cell material: Jurkat lysate) | pIC50 (UniProt P49841; cell material: Jurkat cells) | pIC50 (UniProt P49841; cell material: Jurkat lysate) | pIC50 (CDK2; cell material: Jurkat cells) | pIC50 (CDK2; cell material: Jurkat lysate) | pIC50 (DYRK2; cell material: Jurkat cells) | pIC50 (DYRK2; cell material: Jurkat lysate) | pIC50 (TGFBR2; cell material: Jurkat cells) | pIC50 (TGFBR2; cell material: Jurkat lysate) | pIC50 (CIT; cell material: Jurkat lysate) | pIC50 (AAK1; cell material: Jurkat cells) | pIC50 (AAK1; cell material: Jurkat lysate) | pIC50 (CDKL5; cell material: Jurkat cells) |
| --- | --- | --- | --- | --- | --- | --- | --- | --- | --- | --- | --- | --- | --- | --- | --- | --- | --- | --- | --- | --- | --- | --- | --- | --- | --- | --- | --- | --- | --- |
| 5.23 | < 4.52 | < 4.52 | < 4.52 | < 4.52 | 6.2 | < 4.52 | < 4.52 | < 4.52 | < 4.52 | < 4.52 | < 4.52 | < 4.52 |  | C#CCNC(=O)c1cc(Nc2cc(C)[nH]n2)nc(N2CCN(Cc3ccc(S(=O)(=O)F)cc3)CC2)n1 |  |  |  |  |  |  |  |  |  |  |  |  |  |  |  |
| 5.11 | < 4.52 | < 4.52 | < 4.52 | < 4.52 | 6.47 | < 4.52 | < 4.52 | < 4.52 | < 4.52 | < 4.52 | < 4.52 | < 4.52 |  | CCNC(=O)c1cc(Nc2cc(C)[nH]n2)nc(N2CCN(Cc3ccc(S(=O)(=O)F)cc3)CC2)n1 |  |  |  |  |  |  |  |  |  |  |  |  |  |  |  |
| 6.16 | 5.58 | < 4.52 | < 4.52 | < 4.52 | 6.29 | < 4.52 | < 4.52 | 4.65 | < 4.52 | < 4.52 | < 4.52 | < 4.52 |  | CCNC(=O)c1cc(Nc2cc(C3CC3)[nH]n2)nc(N2CCN(Cc3ccc(S(=O)(=O)F)cc3)CC2)n1 |  |  |  |  |  |  |  |  |  |  |  |  |  |  |  |

Further lines, the compound ahead of its results:

| Compound | pIC50 (CDKL5; cell material: Lysate mix) | pIC50 (UniProt P04629) | pIC50 (INSR; cell material: Lysate mix) | pIC50 (UniProt P49841; cell material: Lysate mix) | pIC50 (EPHA7) | pIC50 (CDK2; cell material: Lysate mix) | pIC50 (ACVR2A) | pIC50 (PKN3) | pIC50 (DYRK2; cell material: Lysate mix) | pIC50 (TGFBR2; cell material: Lysate mix) | pIC50 (CIT; cell material: Lysate mix) | pIC50 (BMX) | pIC50 (AAK1; cell material: Lysate mix) | pIC50 (CIT; cell material: Jurkat cells) | pIC50 (CDKL5; cell material: Jurkat lysate) | pIC50 (INSR; cell material: Jurkat cells) | pIC50 (INSR; cell material: Jurkat lysate) | pIC50 (UniProt P49841; cell material: Jurkat cells) | pIC50 (UniProt P49841; cell material: Jurkat lysate) | pIC50 (CDK2; cell material: Jurkat cells) | pIC50 (CDK2; cell material: Jurkat lysate) | pIC50 (DYRK2; cell material: Jurkat cells) | pIC50 (DYRK2; cell material: Jurkat lysate) | pIC50 (TGFBR2; cell material: Jurkat cells) | pIC50 (TGFBR2; cell material: Jurkat lysate) | pIC50 (CIT; cell material: Jurkat lysate) | pIC50 (AAK1; cell material: Jurkat cells) | pIC50 (AAK1; cell material: Jurkat lysate) | pIC50 (CDKL5; cell material: Jurkat cells) |
| --- | --- | --- | --- | --- | --- | --- | --- | --- | --- | --- | --- | --- | --- | --- | --- | --- | --- | --- | --- | --- | --- | --- | --- | --- | --- | --- | --- | --- | --- |
| Cc1cc(Nc2cc(C(=O)NCCNC(=O)OC3CC/C=C/CCC3)nc(N3CCN(Cc4ccc(S(=O)(=O)F)cc4)CC3)n2)n[nH]1 (configuration not stated) | < 4.52 | < 4.52 | < 4.52 | < 4.52 | < 4.52 | 4.74 | < 4.52 | < 4.52 | < 4.52 | < 4.52 | < 4.52 | < 4.52 | < 4.52 |  |  |  |  |  |  |  |  |  |  |  |  |  |  |  |  |
| O=C(NCCNC(=O)c1cc(Nc2cc(C3CC3)[nH]n2)nc(N2CCN(Cc3ccc(S(=O)(=O)F)cc3)CC2)n1)OC1CC/C=C/CCC1 (configuration not stated) | 5.12 | < 4.52 | < 4.52 | < 4.52 | < 4.52 | 5.19 | < 4.52 | < 4.52 | < 4.52 | < 4.52 | < 4.52 | < 4.52 | < 4.52 | < 4.52 | 4.89 | < 4.52 | < 4.52 | 4.84 | < 4.52 | 6.45 | 5.06 | < 4.52 | < 4.52 | < 4.52 | < 4.52 | < 4.52 | < 4.52 | < 4.52 |  |
| C#CCNC(=O)c1cc(Nc2cc(C3CC3)[nH]n2)nc(N2CCN(Cc3ccc(S(=O)(=O)F)cc3)CC2)n1 | 6.41 | 5.39 | < 4.52 | < 4.52 | < 4.52 | 6.7 | < 4.52 | < 4.52 |  | < 4.52 | < 4.52 | < 4.52 | < 4.52 |  | 5.95 | 4.82 | < 4.52 | 5.26 | < 4.52 | 6.8 | 6.16 | < 4.52 | < 4.52 | 5.5 | < 4.52 | < 4.52 | 5.43 | < 4.52 | 6.89 |
